These results are taken from patent US9102670B2, “Pyrido-, pyrazo- and pyrimido-pyrimidine derivatives as mTOR inhibitors” (KuDOS Pharmaceuticals Limited, priority 2006, dated 2015).

The first experiment has as its system phosphorylation of Serine 473 in Akt. The experiment in a line: In Vitro Phospho-Ser473 Akt Assay in MDA-MB-468 cells. Format: cell-based. To be noted: Homo sapiens, MDA-MB-468, read-out: IC50 values against mTOR, phospho-Ser473 Akt assay, MDA-MB-468 cells.
On to `COc1ccc(-c2ccc3c(N4CCOC[C@@H]4C)nc(-c4cccc(C(N)=O)c4)nc3n2)cc1CO` [Example 19k], for which the IC50 was less than 300 nM.

In the case of `COc1ccc(-c2nc(N3CCOC[C@@H]3C)c3ccc(-c4cccc(CO)c4)nc3n2)cn1` [Example 19p], the 50% inhibitory concentration (IC50) was less than 100 nM.

Still in this experiment, the particulars now being: Homo sapiens, MDA-MB-468, read-out: IC50 values against mTOR, phospho-Ser473 Akt assay, MDA-MB-468 cells, upper bound.
Consider `COCc1cccc(-c2nc(N3CCOC[C@@H]3C)c3ccc(-c4ccc(OC)c(CO)c4)nc3n2)c1` [Example 19l], for which the IC50 was less than 1000 nM. With `COc1ccc(-c2ccc3c(N4CCOC[C@@H]4C)nc(-c4cccc(C(F)(F)F)c4)nc3n2)cc1CO` [Example 19m], the IC50 is less than 1000 nM. In the case of `COc1ccc(-c2ccc3c(N4CCOC[C@@H]4C)nc(-c4cccc(C)c4)nc3n2)cc1CO` [Example 19n], the 50% inhibitory concentration (IC50) was less than 1000 nM. On to `COc1cccc(-c2nc(N3CCOC[C@@H]3C)c3ccc(-c4ccc(OC)c(CO)c4)nc3n2)c1` [Example 19o], for which the IC50 is less than 1000 nM. Turning to `C[C@H]1COCCN1c1nc(-c2ccncc2)nc2nc(-c3cccc(CO)c3)ccc12` [Example 19q], the IC50 was less than 1000 nM. Same read-out and setting: for `COc1cncc(-c2nc(N3CCOC[C@@H]3C)c3ccc(-c4cccc(CO)c4)nc3n2)c1` [Example 19s] the value was less than 1000 nM; for `C[C@H]1COCCN1c1nc(-c2cccnc2F)nc2nc(-c3cccc(CO)c3)ccc12` [Example 19u], less than 1000 nM. Same read-out and setting: next, `C[C@H]1COCCN1c1nc(-c2cnn(C)c2)nc2nc(-c3cccc(CO)c3)ccc12` [Example 19v]: less than 1000 nM; `Cc1nn(C)c(C)c1-c1nc(N2CCOC[C@@H]2C)c2ccc(-c3cccc(CO)c3)nc2n1` [Example 19w]: less than 1000 nM.
